Activity data for 2 compounds are collected here from ChEMBL document CHEMBL2074417, “The bisbenzylisoquinoline alkaloids, tetrandine and fangchinoline, enhance the cytotoxicity of multidrug resistance-related drugs via modulation of P-glycoprotein” (Anticancer Drugs, 1998).

Data set [1] deals with T1, ATP-dependent translocase ABCB1 (Homo sapiens, UniProt P08183). The experiment in a line: TP_TRANSPORTER: increase in Rhodamine 123 intracellular accumulation (R123: 4 uM, Tetrandine: 3 uM) in HCT15 cells. The class given is functional, cell-based. The conditions noted are these: hct-15, 3 µM.
T1 sequence (P08183 whole entry): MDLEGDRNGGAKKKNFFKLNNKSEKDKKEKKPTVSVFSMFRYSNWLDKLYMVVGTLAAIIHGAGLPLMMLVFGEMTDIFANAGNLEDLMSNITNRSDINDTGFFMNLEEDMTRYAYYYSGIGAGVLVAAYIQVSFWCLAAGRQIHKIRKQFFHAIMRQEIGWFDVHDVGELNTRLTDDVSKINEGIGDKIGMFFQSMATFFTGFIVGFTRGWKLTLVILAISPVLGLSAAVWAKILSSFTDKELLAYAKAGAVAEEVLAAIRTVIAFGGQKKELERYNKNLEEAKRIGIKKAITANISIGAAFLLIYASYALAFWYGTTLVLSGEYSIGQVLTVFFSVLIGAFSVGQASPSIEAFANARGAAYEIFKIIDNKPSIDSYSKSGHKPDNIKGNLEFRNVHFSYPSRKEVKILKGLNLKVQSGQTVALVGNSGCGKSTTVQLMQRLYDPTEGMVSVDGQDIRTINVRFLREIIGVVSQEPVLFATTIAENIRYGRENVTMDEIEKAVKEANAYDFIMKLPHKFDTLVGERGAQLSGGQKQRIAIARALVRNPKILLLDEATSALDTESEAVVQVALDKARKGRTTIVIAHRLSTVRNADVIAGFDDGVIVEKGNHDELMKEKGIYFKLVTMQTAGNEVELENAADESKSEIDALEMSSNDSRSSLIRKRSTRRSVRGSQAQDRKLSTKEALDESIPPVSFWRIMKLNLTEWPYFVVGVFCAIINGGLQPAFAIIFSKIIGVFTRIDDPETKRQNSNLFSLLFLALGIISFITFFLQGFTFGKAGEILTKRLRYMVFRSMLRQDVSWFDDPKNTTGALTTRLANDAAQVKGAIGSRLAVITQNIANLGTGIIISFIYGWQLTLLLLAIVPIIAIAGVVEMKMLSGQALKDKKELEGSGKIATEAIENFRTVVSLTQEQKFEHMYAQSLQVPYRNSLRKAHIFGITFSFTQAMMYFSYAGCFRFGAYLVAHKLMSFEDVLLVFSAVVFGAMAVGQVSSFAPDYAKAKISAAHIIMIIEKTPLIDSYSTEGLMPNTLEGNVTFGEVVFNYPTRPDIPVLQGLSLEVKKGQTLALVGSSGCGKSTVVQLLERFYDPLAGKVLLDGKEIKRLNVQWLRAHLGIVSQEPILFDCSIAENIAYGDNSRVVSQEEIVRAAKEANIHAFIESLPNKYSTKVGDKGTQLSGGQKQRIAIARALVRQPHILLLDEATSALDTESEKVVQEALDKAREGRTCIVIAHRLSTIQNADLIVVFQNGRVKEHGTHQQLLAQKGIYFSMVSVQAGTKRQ
Data set [2] deals with T1, ATP-dependent translocase ABCB1. The experiment in a line: TP_TRANSPORTER: increase in Rhodamine 123 intracellular accumulation (R123: 4 uM, Fangchinoline: 3 uM) in HCT15 cells. The class given is functional, cell-based. The conditions noted are these: hct-15, 3 µM.

The structures appear in SMILES notation.

`COc1ccc2cc1Oc1ccc(cc1)C[C@H]1c3cc(c(OC)cc3CCN1C)Oc1c(OC)c(OC)cc3c1[C@H](C2)N(C)CC3` [FANCHININ] displayed an Activity in data set [1] of 2.5 fold.
For `COc1ccc2cc1Oc1ccc(cc1)C[C@H]1c3cc(c(OC)cc3CCN1C)Oc1c(O)c(OC)cc3c1[C@H](C2)N(C)CC3` [FANGCHINOLINE], the Activity in data set [2] came out at 2.4 fold.
